Details: male, C57BL/6, mouse, in vivo, ip
Method: Ob/ob mice or wildtype C57BL/6 male mice were purchased from Jackson Labs or SLAC Laboratory Animals Company Limited, Shanghai, China. PP2Cm germ-line knockout mice were generated as previously described (Lu et al. (2009) J Clin Invest 119:1678-1687). All animals were housed at 22° C. with a 12-hour light, 12-hour dark cycle with free access to water and standard chow. BCAA in water was prepared by BCAA powders. Isocaloric high protein diet (TD90018) and low protein diet (TD90016) were purchased from Envigo Teklad Diet. For glucose or insulin tolerance test, mice were fasted for 6 hours and injected (intraperitoneally) with insulin or D-glucose. […] For BCAA tolerance test, ob/ob mice at age of 10 weeks or high fat diet induced obese (DIO) mice were used. To induce DIO, high fat diet (60% kcal % fat) or control diet (10% kcal % fat) (Research Diets, New Brunswick, N.J.) was used to feed mice starting at 6 weeks of age and continued for 8 weeks. […] Plasma samples were collected at 0, 30, 60, 120 minute points to measure BCAA/BCKA levels. […]
Blood samples were collected at 0, 30, 60, 120 minute points as indicated. Plasma was then collected and BCAA/BCKA was measured.

time point of recovery to near the basal level: 1 h
SMILES: CC(C)C[C@H](N)C(=O)O [leucine]

Source: US20210278391A1, “COMPOSITIONS AND METHODS FOR TREATING CARDIOVASCULAR AND METABOLIC CONDITIONS” (The Regents of the University of California, priority 2017, published 2021)
